Measurements published in the NIST ThermoML archive (doi:10.1021/je800110r).

Settings: Liquid, Vibrating tube method

CCCCCCCCCC [decane]
Settings	mass density [kg/m3]
313.15 K, 25586 kPa	734.5
313.15 K, 25902 kPa	734.7
313.15 K, 25935 kPa	734.7
313.15 K, 25969 kPa	734.6
313.15 K, 25993 kPa	734.9
313.15 K, 26027 kPa	734.7
313.15 K, 26065 kPa	734.7
313.15 K, 26104 kPa	734.9
313.15 K, 26144 kPa	735
313.15 K, 26173 kPa	734.9
313.15 K, 26208 kPa	734.9
313.15 K, 26233 kPa	734.9
313.15 K, 26272 kPa	735
313.15 K, 26306 kPa	735
313.15 K, 26341 kPa	735
313.15 K, 26370 kPa	735.1
313.15 K, 26410 kPa	735
313.15 K, 26440 kPa	735.2
313.15 K, 26475 kPa	735.2
313.15 K, 26510 kPa	735.1
313.15 K, 26557 kPa	735.1
313.15 K, 26582 kPa	735.1
313.15 K, 26614 kPa	735.3
313.15 K, 26655 kPa	735.3
313.15 K, 26690 kPa	735.2
313.15 K, 26722 kPa	735.3
313.15 K, 26763 kPa	735.3
313.15 K, 26799 kPa	735.4
313.15 K, 26842 kPa	735.3
313.15 K, 26874 kPa	735.3
313.15 K, 26911 kPa	735.5
313.15 K, 26941 kPa	735.5
313.15 K, 26969 kPa	735.5
313.15 K, 26998 kPa	735.6
313.15 K, 27035 kPa	735.4
313.15 K, 27058 kPa	735.5
313.15 K, 27874 kPa	736
313.15 K, 27972 kPa	736
313.15 K, 28011 kPa	736.2
313.15 K, 28036 kPa	736
313.15 K, 28071 kPa	736.1
313.15 K, 28101 kPa	736.2
313.15 K, 28131 kPa	736.2
313.15 K, 28162 kPa	736.3
313.15 K, 28202 kPa	736.3
313.15 K, 28237 kPa	736.3
313.15 K, 28272 kPa	736.3
313.15 K, 28297 kPa	736.3
313.15 K, 28327 kPa	736.3
313.15 K, 28372 kPa	736.4
313.15 K, 28403 kPa	736.4
313.15 K, 28449 kPa	736.5
313.15 K, 28480 kPa	736.5
313.15 K, 28515 kPa	736.4
313.15 K, 28542 kPa	736.5
313.15 K, 28578 kPa	736.5
313.15 K, 28619 kPa	736.5
313.15 K, 28645 kPa	736.5
313.15 K, 28692 kPa	736.6
313.15 K, 28723 kPa	736.7
313.15 K, 28750 kPa	736.7
313.15 K, 28791 kPa	736.7
313.15 K, 28828 kPa	736.6
313.15 K, 28860 kPa	736.8
313.15 K, 28902 kPa	736.7
313.15 K, 28945 kPa	736.8
313.15 K, 28971 kPa	736.8
313.15 K, 29019 kPa	736.8
313.15 K, 29061 kPa	736.9
313.15 K, 29168 kPa	737
313.15 K, 30647 kPa	737.9
313.15 K, 30676 kPa	738
313.15 K, 30710 kPa	737.9
313.15 K, 30738 kPa	738
313.15 K, 30777 kPa	738
313.15 K, 30816 kPa	738.1
313.15 K, 30856 kPa	738.1
313.15 K, 30889 kPa	738.1
313.15 K, 30929 kPa	738
313.15 K, 30974 kPa	738.1
313.15 K, 31089 kPa	738.2
313.15 K, 31432 kPa	738.4
313.15 K, 31467 kPa	738.4
313.15 K, 31515 kPa	738.4
313.15 K, 31562 kPa	738.5
313.15 K, 31610 kPa	738.4
313.15 K, 31646 kPa	738.6
313.15 K, 31694 kPa	738.6
313.15 K, 31736 kPa	738.6
313.15 K, 31766 kPa	738.4
313.15 K, 31815 kPa	738.6
313.15 K, 31856 kPa	738.6
313.15 K, 31901 kPa	738.7
313.15 K, 31947 kPa	738.7
313.15 K, 31981 kPa	738.7
313.15 K, 32023 kPa	738.8
313.15 K, 32070 kPa	738.8
313.15 K, 32100 kPa	738.9
313.15 K, 32135 kPa	738.9
313.15 K, 32176 kPa	738.9
313.15 K, 32213 kPa	738.9
313.15 K, 32253 kPa	738.9
313.15 K, 32294 kPa	738.9
313.15 K, 32345 kPa	739
313.15 K, 32379 kPa	739
313.15 K, 32413 kPa	739
313.15 K, 32459 kPa	739.1
313.15 K, 32491 kPa	739.1
313.15 K, 32528 kPa	739.1
313.15 K, 32561 kPa	739.1
313.15 K, 32592 kPa	739.3
313.15 K, 32633 kPa	739.1
313.15 K, 32666 kPa	739.2
313.15 K, 32704 kPa	739.3
313.15 K, 32737 kPa	739.3
313.15 K, 32770 kPa	739.3
313.16 K, 339 kPa	714.8
313.16 K, 365 kPa	714.9
313.16 K, 391 kPa	715
313.16 K, 423 kPa	715
313.16 K, 450 kPa	714.9
313.16 K, 478 kPa	715
313.16 K, 508 kPa	715
313.16 K, 548 kPa	715.1
313.16 K, 579 kPa	715.1
313.16 K, 595 kPa	715.2
313.16 K, 607 kPa	715.1
313.16 K, 620 kPa	715
313.16 K, 631 kPa	715.1
313.16 K, 651 kPa	715.2
313.16 K, 661 kPa	715.1
313.16 K, 673 kPa	715.3
313.16 K, 686 kPa	715.2
313.16 K, 699 kPa	715.2
313.16 K, 719 kPa	715.2
313.16 K, 733 kPa	715.2
